Assay results: patent US9302999B2, “Substituted triazoles as herbicides” (E. I. DU PONT DE NEMOURS AND COMPANY, priority 2012, dated 2016)

Columns and labels:
Type in all cases: in vivo
[1] = test system: crabgrass, large (large crabgrass, Digitaria sanguinalis); experiment: Test A pre-/postemergence: crabgrass, large
In short: (§1)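 Injury is scored visually on a scale where 0 means no effect and 100 complete control, comparing treated with untreated plants after approximately ten greenhouse days. Both preemergence and postemergence applications are made at the same time.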

[2] = test system: blackgrass (Alopecurus myosuroides); experiment: Test C pre-/postemergence: blackgrass
In short: (§2)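 Preemergence on seeds in loam/sand, postemergence on 2–18 cm (1–4-leaf) plants in peat-based medium; compounds in non-phytotoxic solvent with surfactant. After 13–15 days in greenhouse, visual rating versus controls, 0 (no effect) to 100 (complete control).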

[3] = test system: morningglory (Ipomoea spp.); experiment: Test A pre-/postemergence: morningglory
In short: as §1

[4] = test system: foxtail, giant (giant foxtail, Setaria faberii); experiment: Test A pre-/postemergence: foxtail, giant
In short: as §1

Oilseed Rape = experiment: Test C postemergence: oilseed rape
Excerpt: (§3) At the same time, plants selected from these crop and weed species and also barley (winter barley, Hordeum vulgare), canarygrass (Phalaris minor), chickweed (common chickweed, Stellaria media) windgrass (Apera spica-venti) and deadnettle (henbit deadnettle, Lamium amplexicaule) were planted in pots containing Redi-Earth® planting medium (Scotts Company, 14111 Scottslawn Road, Marysville, Ohio 43041) comprising spaghnum peat moss, vermiculite, wetting agent and starter nutrients and treated with postemergence applications of test chemicals formulated in the same manner. Plants ranged in height from 2 to 18 cm (1- to 4-leaf stage) for postemergence treatments.
(§4) Treated plants and controls were maintained in a greenhouse for 13 to 15 days, after which time all species were compared to controls and visually evaluated. Plant response ratings, summarized in Table C, are based on a scale of 0 to 100 where 0 is no effect and 100 is complete control. A dash (-) response means no test result.

Waterhemp = experiment: Test C postemergence: waterhemp
Excerpt: as §3, §4

[5] = test system: johnsongrass (Sorghum halepense); experiment: Test C pre-/postemergence: johnsongrass
In short: as §2

[6] = test system: morningglory (Ipomoea coccinea); experiment: Test C pre-/postemergence: morningglory
In short: as §2

[7] = test system: galium (catchweed bedstraw, Galium aparine); experiment: Test C pre-/postemergence: galium
In short: as §2

[8] = test system: velvetleaf (Abutilon theophrasti); experiment: Test A pre-/postemergence: velvetleaf
In short: as §1

[9] = Postemergence, 125 g ai/ha, 0 to 100 scale, 0 is no effect, 100 is complete control
[10] = Postemergence, 500 g ai/ha, 0 to 100 scale, 0 is no effect, 100 is complete control
[11] = Preemergence, 125 g ai/ha, 0 to 100 scale where 0 is no effect and 100 is complete control
[12] = Preemergence, 500 g ai/ha, 0 to 100 scale (0 no effect, 100 complete control)
[13] = Postemergence, 31 g ai/ha, scale 0 to 100 (0 no effect, 100 complete control)
[14] = Postemergence, 62 g ai/ha, scale 0 to 100 (0 no effect, 100 complete control)
[15] = Postemergence, 125 g ai/ha, scale 0 to 100, 0 no effect, 100 complete control
[16] = Postemergence, 250 g ai/ha, scale 0 to 100
[17] = Preemergence, 31 g ai/ha, scale 0 (no effect) to 100 (complete control)
[18] = Preemergence, 62 g ai/ha, scale of 0 to 100, 0 is no effect, 100 is complete control
[19] = Preemergence, 125 g ai/ha, scale 0 to 100, 0 no effect, 100 complete control
[20] = Preemergence, 250 g ai/ha, scale 0 to 100, 0 no effect, 100 complete control
[21] = 62 g ai/ha, scale 0 to 100 (0 no effect, 100 complete control)
[22] = Postemergence, 250 g ai/ha, scale 0 to 100 (0 no effect, 100 complete control)
[23] = Postemergence, 500 g ai/ha, visual rating on 0 to 100 scale (0 no effect, 100 complete control), approximately ten days
[24] = Preemergence, 31 g ai/ha, scale of 0 to 100, 0 is no effect, 100 is complete control
[25] = 31 g ai/ha, scale 0 to 100 (0 no effect, 100 complete control)

CCCc1nn(-c2ccc(F)cc2F)nc1Oc1ccnc(C(F)(F)F)c1 [Compound 179]
Plant response rating, Crabgrass, Large [1, 9]: 90
Crabgrass, Large plant response rating [1, 10]: 90
Plant response rating, Crabgrass, Large [1, 11]: 100
Plant response rating, Crabgrass, Large [1, 12]: 100
Plant response rating, Blackgrass [2, 13]: 30
Plant response rating, Blackgrass [2, 14]: 50
Plant response rating, Blackgrass [2, 15]: 55
Plant response rating, Blackgrass [2, 16]: 60
Plant response rating, Blackgrass [2, 17]: 80
Plant response rating, Blackgrass [2, 18]: 100
Plant response rating, Blackgrass [2, 19]: 100
Plant response rating, Blackgrass [2, 20]: 100
Plant response rating, Morningglory [3, 9]: 100
Morningglory plant response rating [3, 10]: 100
Plant response rating, Morningglory [3, 11]: 40
Plant response rating, Morningglory [3, 12]: 70
Plant response rating, Foxtail, Giant [4, 9]: 90
Foxtail, Giant plant response rating [4, 10]: 90
Plant response rating, Foxtail, Giant [4, 11]: 100
Plant response rating, Foxtail, Giant [4, 12]: 100
Plant response rating, Oilseed Rape (Oilseed Rape; [21]): 40
Plant response rating, Waterhemp (Waterhemp; [21]): 90
Plant response rating, Johnsongrass [5, 13]: 10
Plant response rating, Johnsongrass [5, 14]: 20
Plant response rating, Johnsongrass [5, 15]: 20
Plant response rating, Johnsongrass [5, 22]: 55
Plant response rating, Johnsongrass [5, 17]: 5
Plant response rating, Johnsongrass [5, 18]: 60
Plant response rating, Johnsongrass [5, 19]: 95
Plant response rating, Johnsongrass [5, 20]: 100
Plant response rating, Morningglory [6, 13]: 65
Plant response rating, Morningglory [6, 14]: 80
Plant response rating, Morningglory [6, 15]: 80
Plant response rating, Morningglory [6, 22]: 90
Plant response rating, Morningglory [6, 17]: 5
Plant response rating, Morningglory [6, 18]: 40
Plant response rating, Morningglory [6, 19]: 55
Plant response rating, Morningglory [6, 20]: 65
Plant response rating, Galium [7, 13]: 90
Plant response rating, Galium [7, 14]: 90
Plant response rating, Galium [7, 15]: 90
Plant response rating, Galium [7, 22]: 90
Plant response rating, Galium [7, 17]: 80
Plant response rating, Galium [7, 18]: 100
Plant response rating, Galium [7, 19]: 100
Plant response rating, Galium [7, 20]: 100
Plant response rating, Velvetleaf [8, 9]: 90
Velvetleaf plant response rating [8, 10]: 100
Plant response rating, Velvetleaf [8, 11]: 80
Plant response rating, Velvetleaf [8, 12]: 100

Cc1nn(-c2ccc(F)c(C(F)(F)F)c2)nc1Cc1ccnc(C(F)(F)F)c1 [Compound 156]
Plant response rating, Crabgrass, Large [1, 9]: 100
Crabgrass, Large plant response rating [1, 23]: 100
Plant response rating, Crabgrass, Large [1, 11]: 100
Plant response rating, Crabgrass, Large [1, 12]: 100
Plant response rating, Blackgrass [2, 13]: 50
Plant response rating, Blackgrass [2, 14]: 60
Plant response rating, Blackgrass [2, 15]: 75
Plant response rating, Blackgrass [2, 16]: 85
Plant response rating, Blackgrass [2, 24]: 85
Plant response rating, Blackgrass [2, 18]: 90
Plant response rating, Blackgrass [2, 19]: 90
Plant response rating, Blackgrass [2, 20]: 90
Plant response rating, Morningglory [3, 9]: 90
Morningglory plant response rating [3, 23]: 90
Plant response rating, Morningglory [3, 11]: 80
Plant response rating, Morningglory [3, 12]: 90
Plant response rating, Foxtail, Giant [4, 9]: 90
Foxtail, Giant plant response rating [4, 23]: 100
Plant response rating, Foxtail, Giant [4, 11]: 100
Plant response rating, Foxtail, Giant [4, 12]: 100
Plant response rating, Oilseed Rape (Oilseed Rape; [25]): 80
Plant response rating, Oilseed Rape (Oilseed Rape; [21]): 90
Plant response rating, Oilseed Rape (Oilseed Rape; 250 g ai/ha, scale 0 to 100): 95
Plant response rating, Waterhemp (Waterhemp; [25]): 98
Plant response rating, Waterhemp (Waterhemp; [21]): 98
Plant response rating, Waterhemp (Waterhemp; 250 g ai/ha, scale 0 to 100): 98
Plant response rating, Johnsongrass [5, 13]: 45
Plant response rating, Johnsongrass [5, 14]: 50
Plant response rating, Johnsongrass [5, 15]: 65
Plant response rating, Johnsongrass [5, 16]: 85
Plant response rating, Johnsongrass [5, 24]: 75
Plant response rating, Johnsongrass [5, 18]: 90
Plant response rating, Johnsongrass [5, 19]: 90
Plant response rating, Johnsongrass [5, 20]: 95
Plant response rating, Morningglory [6, 13]: 65
Plant response rating, Morningglory [6, 14]: 70
Plant response rating, Morningglory [6, 15]: 75
Plant response rating, Morningglory [6, 16]: 100
Plant response rating, Morningglory [6, 24]: 5
Plant response rating, Morningglory [6, 18]: 10
Plant response rating, Morningglory [6, 19]: 10
Plant response rating, Morningglory [6, 20]: 30
Plant response rating, Galium [7, 13]: 80
Plant response rating, Galium [7, 14]: 90
Plant response rating, Galium [7, 15]: 90
Plant response rating, Galium [7, 16]: 95
Plant response rating, Galium [7, 24]: 85
Plant response rating, Galium [7, 18]: 100
Plant response rating, Galium [7, 19]: 100
Plant response rating, Galium [7, 20]: 100
Plant response rating, Velvetleaf [8, 9]: 100
Velvetleaf plant response rating [8, 23]: 100
Plant response rating, Velvetleaf [8, 11]: 30
